From PubChem BioAssay (NCI) come the findings set out here.

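Where inhibition never reached the appropriate level, the endpoint shown equals the highest concentration tested. Otherwise, values were interpolated linearly from a five-concentration, 48-hour dose response in 96-well plates. The concentration for 50% growth inhibition is given as GI50. TGI: total growth inhibition.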

Test systems include HS 578T breast; SNB-19 CNS; BT-549 breast; MCF7 breast; RPMI-8226 leukemia; NCI-H23 lung; A498 renal; RXF 393 renal; SF-268 CNS; HOP-92 NSCLC.
Common to all, as to experiment: NCI tumour cell line growth inhibition, 48 h

With `CNC(=O)c1ccccc1Nc1nc(Nc2cc(OC)c(OC)c(OC)c2)ncc1Br`, the GI50 was 0.0259 µM in the experiment with HS 578T breast; 0.12 µM with SNB-19 CNS; 0.0704 µM in the experiment with BT-549 breast; 0.0374 µM with MCF7 breast; 0.0701 µM in the experiment on RPMI-8226 leukemia; 0.035 µM in the experiment with NCI-H23 lung. Moreover, the GI50 in the experiment with A498 renal was less than 0.0109 µM; with RXF 393 renal, 0.0154 µM; in the experiment with SF-268 CNS it was 0.0384 µM; with HOP-92 NSCLC, less than 0.0152 µM. In addition, the TGI with HS 578T breast came to 0.569 µM; in the experiment on SNB-19 CNS, 2.53 µM; in the experiment with BT-549 breast, 1.17 µM; with MCF7 breast, 2.78 µM; in the experiment on RPMI-8226 leukemia, 2.84 µM; with NCI-H23 lung it was 1.12 µM. The TGI came to 0.0368 µM with A498 renal, 0.0712 µM in the experiment on RXF 393 renal, 2.18 µM in the experiment on SF-268 CNS and 0.0874 µM with HOP-92 NSCLC.

On to `Cn1cnc([N+](=O)[O-])c1Sc1nc(N)nc2c1ncn2C1CC(O)C(CO)O1` (stereo not given), for which the TGI with HS 578T breast was more than 100 µM; with SNB-19 CNS, more than 100 µM; with BT-549 breast it was more than 100 µM; with MCF7 breast, more than 54.2 µM; with RPMI-8226 leukemia, 36.2 µM; with NCI-H23 lung, more than 55 µM. Also, the TGI in the experiment on A498 renal is 71.2 µM; in the experiment with RXF 393 renal it was more than 100 µM; with SF-268 CNS it was more than 100 µM; with HOP-92 NSCLC, more than 100 µM.

`CS(=O)(=O)CCc1cccc(C(=O)c2cnn(-c3ccc(F)cc3)c2N)c1`: the GI50 in the experiment with HS 578T breast, in the experiment on SNB-19 CNS, in the experiment on BT-549 breast, in the experiment with MCF7 breast, in the experiment on RPMI-8226 leukemia and in the experiment with NCI-H23 lung was more than 25 µM each time. Moreover, the GI50 with A498 renal, in the experiment with RXF 393 renal, with SF-268 CNS and in the experiment with HOP-92 NSCLC was more than 25 µM each time. Further, the TGI with HS 578T breast, with SNB-19 CNS, with BT-549 breast, with MCF7 breast, in the experiment on RPMI-8226 leukemia and with NCI-H23 lung was more than 25 µM each time. The TGI in the experiment on A498 renal, with RXF 393 renal, with SF-268 CNS and with HOP-92 NSCLC was more than 25 µM throughout.

As to `CN(Cc1ccccc1)c1ccc(CO)c(Cl)c1`, the GI50 with HS 578T breast is 35.2 µM; in the experiment on SNB-19 CNS, more than 84.3 µM; with BT-549 breast, 21.1 µM; in the experiment on MCF7 breast it was 1.49 µM; in the experiment on RPMI-8226 leukemia it was 15.4 µM; in the experiment with NCI-H23 lung, 17.9 µM. In addition, the GI50 in the experiment on A498 renal is 0.0652 µM; in the experiment with RXF 393 renal it was 13.1 µM; with SF-268 CNS, 47.2 µM; in the experiment on HOP-92 NSCLC, 3.9 µM. Besides, the TGI with HS 578T breast is more than 100 µM; with SNB-19 CNS it was more than 100 µM; with BT-549 breast, more than 100 µM; in the experiment with MCF7 breast, 40.3 µM; in the experiment with RPMI-8226 leukemia, more than 96.2 µM; in the experiment on NCI-H23 lung, more than 100 µM. Also, the TGI in the experiment on A498 renal is 0.212 µM; with RXF 393 renal, more than 60.9 µM; in the experiment on SF-268 CNS, more than 100 µM; in the experiment on HOP-92 NSCLC, 37.4 µM.

On to `Nc1nc2c(ncn2C2C=CC(CO)C2)c(=O)[nH]1` (stereo not given), for which the TGI with HS 578T breast, in the experiment with SNB-19 CNS, with BT-549 breast, in the experiment on MCF7 breast, with RPMI-8226 leukemia and in the experiment on NCI-H23 lung was more than 100 µM throughout. Also, the TGI in the experiment on A498 renal, in the experiment with RXF 393 renal, in the experiment on SF-268 CNS and with HOP-92 NSCLC was more than 100 µM throughout.

Take `Oc1ccc(C(c2ccc(O)cc2)c2ccc(O)cc2)cc1`: the TGI was 56.1 µM in the experiment with HS 578T breast; 66.1 µM with SNB-19 CNS; 54.2 µM with BT-549 breast; more than 100 µM in the experiment on MCF7 breast; 56.8 µM in the experiment on RPMI-8226 leukemia; 45.7 µM in the experiment on NCI-H23 lung. Besides, the TGI with A498 renal was 34.5 µM; with RXF 393 renal it was 39.5 µM; in the experiment on SF-268 CNS it was more than 100 µM; in the experiment on HOP-92 NSCLC it was 60.5 µM.

Turning to `O=C1C=CC(=Nc2cc(Br)c(O)c(Br)c2)C=C1`, the GI50 with HS 578T breast is 32.1 µM; in the experiment with SNB-19 CNS, 44.2 µM; with BT-549 breast it was 16.4 µM; in the experiment with MCF7 breast, 7.87 µM; in the experiment on RPMI-8226 leukemia, 11.9 µM; with NCI-H23 lung it was 16 µM. For the same compound, the GI50 with A498 renal was 26.5 µM; with RXF 393 renal it was 12.5 µM; with SF-268 CNS, 24.6 µM; in the experiment on HOP-92 NSCLC, 39.6 µM. For the same compound, the TGI in the experiment with HS 578T breast is more than 100 µM; with SNB-19 CNS, more than 100 µM; in the experiment on BT-549 breast, 74.8 µM; in the experiment with MCF7 breast it was more than 100 µM; in the experiment with RPMI-8226 leukemia it was more than 100 µM; in the experiment on NCI-H23 lung, 38.3 µM. The TGI is more than 100 µM in the experiment on A498 renal, 63.8 µM with RXF 393 renal, more than 100 µM with SF-268 CNS and more than 100 µM with HOP-92 NSCLC.

As for `Cc1cc(N2CCOCC2)nc(N[C@@H]2CCC[C@H](Nc3ccnc4cc(Cl)ccc34)C2)n1`, the GI50 is 1.84 µM in the experiment on HS 578T breast; 3.35 µM in the experiment on SNB-19 CNS; 2.34 µM in the experiment with BT-549 breast; 1.76 µM with MCF7 breast; 2.09 µM with RPMI-8226 leukemia; 5.97 µM in the experiment on NCI-H23 lung. Moreover, the GI50 is 1.57 µM in the experiment with A498 renal, 1.44 µM in the experiment with RXF 393 renal, 1.59 µM in the experiment on SF-268 CNS and 1.44 µM in the experiment with HOP-92 NSCLC. In addition, the TGI was 5.14 µM in the experiment on HS 578T breast; 12.2 µM in the experiment with SNB-19 CNS; 5.01 µM in the experiment with BT-549 breast; 4.15 µM in the experiment on MCF7 breast; 5.25 µM in the experiment with RPMI-8226 leukemia; 21.2 µM in the experiment on NCI-H23 lung. In addition, the TGI is 4.4 µM in the experiment with A498 renal, 3.11 µM in the experiment on RXF 393 renal, 4.44 µM with SF-268 CNS and 3.08 µM with HOP-92 NSCLC.

Consider `O=C(Nc1ccncc1)C(=O)c1cn(S(=O)(=O)c2ccc(Cl)cc2)c2ccccc12`, for which the GI50 with HS 578T breast was 11.2 µM; with SNB-19 CNS, 5.94 µM; in the experiment on BT-549 breast, 3.75 µM; in the experiment with MCF7 breast, 0.354 µM; with RPMI-8226 leukemia it was 1.44 µM; in the experiment with NCI-H23 lung, 0.425 µM. The GI50 in the experiment with A498 renal was 8.83 µM; in the experiment on RXF 393 renal, 3.71 µM; in the experiment with SF-268 CNS, 1.39 µM; in the experiment with HOP-92 NSCLC, 1.12 µM. Besides, the TGI in the experiment with HS 578T breast was more than 100 µM; with SNB-19 CNS, 51.5 µM; with BT-549 breast, more than 80.5 µM; with MCF7 breast, 38.7 µM; in the experiment on RPMI-8226 leukemia, more than 100 µM; in the experiment on NCI-H23 lung, 33.1 µM. The TGI in the experiment with A498 renal was more than 74.9 µM; in the experiment on RXF 393 renal, 35.7 µM; with SF-268 CNS, more than 100 µM; in the experiment with HOP-92 NSCLC, 19.9 µM.
